Measured values as given in patent US20250345391A1, “COMPOSITIONS AND METHODS FOR THE TREATMENT OF SEPSIS” (Children's Hospital Medical Center, priority 2022, published 2025).

How the values were obtained:
STAT3 = assay: Western blot of STAT3 and phosphorylated forms in lung after CLP; type: in vivo, Male C57BL/6 mice; conditions: 6 h after CLP; colivelin 100 μg/kg i.p. at 1 h after CLP; vs vehicle
Description: The investigation conformed to the National Institutes of Health Guide for the Care and Use of Laboratory Animals (Eighth Edition, 2011) and was approved by the Institutional Animal Care and Use Committee of the Cincinnati Children's Hospital Medical Center. Male C57BL/6 mice were obtained from Charles River Laboratories International, Inc. (Wilmington, MA). Mice were used at 3-5 months of age to mimic the equivalent for human ranges from 20-25 years (29). Male mice only were chosen for the experimentation to avoid interference from female hormonal fluctuations in sepsis responses during the estrous cycle. Mice were housed in pathogen-free conditions under a 10-h light/14-h dark cycle with free access to food and water. Mice were anesthetized with 2.0% isoflurane in 50% oxygen and polymicrobial sepsis was induced by cecal ligation and puncture (CLP) (30). After a midline laparotomy, the cecum was exteriorized, ligated and punctured twice with a 23-G needle. The cecum was then returned into the peritoneal cavity and the abdominal incision was closed. After the procedure, mice were randomly assigned to three treatment groups: a vehicle-treated group received distilled water (200 μl/mouse) intraperitoneally (i.p.); a 100 μg colivelin-treated group received the colivelin at 100 μg/kg i.p., and a 200 μg colivelin-treated group received the colivelin at 200 μg/kg i.p. at 1 h after CLP. The intraperitoneal injection was chosen to allow for a rapid uptake and bioavailability of the peptide. All groups of mice also received fluid resuscitation (35 ml/kg normal saline solution subcutaneously) immediately after, at 3 h and 12 h after the CLP procedure. To minimize pain at the surgical incision site, lidocaine hydrochloride (1%, 4 mg/kg total dose) was applied locally immediately after the procedure. […] Mice were then sacrificed at 0, 6 and 18 h after CLP. Blood, lungs, kidneys, liver, and thoracic aortas were collected for biochemical assays.
Subcellular fractionation was performed using a centrifugation model. […] The Bradford protein assay was then used for quantitative determination of total proteins.
Cytosol content of total AMPKα1/α2 and its phosphorylated form pAMPKα1/α2 (Santa Cruz Biotechnology, Dallas, TX, USA), cytosol and nuclear content of STAT3 and its phosphorylated forms pSTAT3(Tyr705) and pSTAT3(Ser727) (Cell Signaling Technology, Danvers, MA, USA) were determined by immunoblot analyses; β-actin was concomitantly probed with mouse anti-β-actin (Santa Cruz Biotechnology) as a loading control for both cytosol and nuclear proteins. […] The immunoreaction was detected by near-infrared fluorescence. […]

[1] = system: Myeloperoxidase (MPO) activity in lung, kidneys and liver tissue; assay: Myeloperoxidase activity (neutrophil infiltration) in organs after CLP sepsis; type: in vivo, Male C57BL/6 mice; conditions: 6 h after CLP; colivelin 100 or 200 μg/kg i.p. at 1 h after CLP; vs vehicle; dose-independent
Description: The investigation conformed to the National Institutes of Health Guide for the Care and Use of Laboratory Animals (Eighth Edition, 2011) and was approved by the Institutional Animal Care and Use Committee of the Cincinnati Children's Hospital Medical Center. Male C57BL/6 mice were obtained from Charles River Laboratories International, Inc. (Wilmington, MA). Mice were used at 3-5 months of age to mimic the equivalent for human ranges from 20-25 years (29). Male mice only were chosen for the experimentation to avoid interference from female hormonal fluctuations in sepsis responses during the estrous cycle. Mice were housed in pathogen-free conditions under a 10-h light/14-h dark cycle with free access to food and water. Mice were anesthetized with 2.0% isoflurane in 50% oxygen and polymicrobial sepsis was induced by cecal ligation and puncture (CLP) (30). After a midline laparotomy, the cecum was exteriorized, ligated and punctured twice with a 23-G needle. The cecum was then returned into the peritoneal cavity and the abdominal incision was closed. After the procedure, mice were randomly assigned to three treatment groups: a vehicle-treated group received distilled water (200 μl/mouse) intraperitoneally (i.p.); a 100 μg colivelin-treated group received the colivelin at 100 μg/kg i.p., and a 200 μg colivelin-treated group received the colivelin at 200 μg/kg i.p. at 1 h after CLP. The intraperitoneal injection was chosen to allow for a rapid uptake and bioavailability of the peptide. All groups of mice also received fluid resuscitation (35 ml/kg normal saline solution subcutaneously) immediately after, at 3 h and 12 h after the CLP procedure. […] Myeloperoxidase (MPO) activity was measured as an indicator of neutrophil infiltration in lung, kidneys and liver tissue. […] The rate of change in absorbance was measured by spectrophotometry at 650 nm. MPO activity was defined as the quantity of enzyme degrading 1 μmol of hydrogen peroxide/min at 37° C. and expressed in units per 100 mg weight of tissue.

**Q.** Which results are given for Colivelin (SALLRSIPAPAGASRLLLLTGEIDLP)?
**A.** Cytosolic expression of pSTAT3(Ser727), lung (STAT3): significantly reduced; Cytosolic expression of pSTAT3(Tyr705), lung (STAT3): significantly reduced; Nuclear expression of pSTAT3(Ser727), lung (STAT3): lower than vehicle-treated mice, but not statistically significant; Nuclear expression of pSTAT3(Tyr705), lung (STAT3): lower than vehicle-treated mice, but not statistically significant; MPO activity in kidneys [1]: significantly decreased; MPO activity in liver [1]: significantly decreased; MPO activity in lungs [1]: significantly decreased
